According to the CheMixHub viscosity set:
± gives the uncertainty stated by the source.

Experiment: xn = mol fraction of the nth substance listed

C=CC[P+](c1ccccc1)(c1ccccc1)c1ccccc1.[Br-] + OCCOCCO
viscosity [mPa·s], 100 kPa
Details | 293.15 K | 298.15 K | 303.15 K | 308.15 K | 313.15 K | 318.15 K | 323.15 K
x1 = 0.05884 | 57.19 ± 1.8 | 43.59 ± 1.3 | 33.68 ± 0.97 | 26.69 ± 0.76 | 21.74 ± 0.6 | 17.83 ± 0.48 | 14.79 ± 0.39
x1 = 0.09089 | 70.92 ± 4.8 | 53.42 ± 3.4 | 41.11 ± 2.4 | 32.27 ± 1.8 | 25.8 ± 1.3 | 20.96 ± 1 | 17.27 ± 0.78
x1 = 0.2 | 213.2 ± 12 | 150.8 ± 7.2 | 109.1 ± 4.4 | 81.11 ± 2.9 | 61.8 ± 2 | 47.98 ± 1.5 | 37.87 ± 1.2

Brc1ccccc1 + OCCOCCOCCO
viscosity [mPa·s], 101 kPa
Details | 298.15 K | 308.15 K
x2 = 0.0462 | 1.316 ± 0.064 | 1.168 ± 0.058
x2 = 0.1502 | 2.173 ± 0.1 | 1.769 ± 0.084
x2 = 0.2493 | 3.39 ± 0.15 | 2.568 ± 0.12
x2 = 0.3505 | 5.164 ± 0.23 | 3.674 ± 0.17
x2 = 0.4433 | 7.374 ± 0.3 | 5.002 ± 0.22
x2 = 0.4974 | 8.957 ± 0.34 | 5.935 ± 0.25
x2 = 0.5484 | 10.66 ± 0.4 | 6.933 ± 0.28
x2 = 0.6475 | 14.61 ± 0.52 | 9.221 ± 0.35
x2 = 0.7514 | 19.62 ± 0.68 | 12.15 ± 0.44
x2 = 0.8484 | 25.03 ± 0.84 | 15.37 ± 0.54
x2 = 0.937 | 30.42 ± 1 | 18.72 ± 0.64

C=CC[P+](c1ccccc1)(c1ccccc1)c1ccccc1.[Br-] + OCCOCCOCCO
viscosity [mPa·s], 100 kPa
Details | 293.15 K | 298.15 K | 303.15 K | 308.15 K | 313.15 K | 318.15 K | 323.15 K
x1 = 0.05879 | 76.63 ± 2.9 | 57.94 ± 1.9 | 44.82 ± 1.5 | 35.26 ± 1.1 | 28.28 ± 0.88 | 22.99 ± 0.7 | 18.97 ± 0.56
x1 = 0.0909 | 95.29 ± 5.9 | 71.69 ± 4 | 54.83 ± 2.8 | 42.76 ± 2.1 | 33.94 ± 1.6 | 27.41 ± 1.2 | 22.42 ± 0.93
x1 = 0.2 | 233.7 ± 14 | 166.5 ± 8.3 | 121.6 ± 5.2 | 90.91 ± 3.3 | 69.36 ± 2.3 | 53.99 ± 1.6 | 42.73 ± 1.3

BrCCBr + c1ccccc1
101.33 kPa
Details | viscosity [mPa·s]
298.15 K, x1 = 0.0999 | 0.6395 ± 0.0075
298.15 K, x1 = 0.2016 | 0.6889 ± 0.008
298.15 K, x1 = 0.312 | 0.8229 ± 0.0095
298.15 K, x1 = 0.4109 | 0.8428 ± 0.0098
298.15 K, x1 = 0.5099 | 0.8941 ± 0.01
298.15 K, x1 = 0.6073 | 1.034 ± 0.012
298.15 K, x1 = 0.7101 | 1.116 ± 0.013
298.15 K, x1 = 0.8038 | 1.253 ± 0.014
298.15 K, x1 = 0.9005 | 1.422 ± 0.016
308.15 K, x1 = 0.1052 | 0.5588 ± 0.0066
308.15 K, x1 = 0.2078 | 0.6034 ± 0.0071
308.15 K, x1 = 0.3146 | 0.6379 ± 0.0075
308.15 K, x1 = 0.4086 | 0.7026 ± 0.0082
308.15 K, x1 = 0.5068 | 0.7767 ± 0.0091
308.15 K, x1 = 0.6088 | 0.8569 ± 0.01
308.15 K, x1 = 0.7019 | 0.961 ± 0.011
308.15 K, x1 = 0.8028 | 1.128 ± 0.013
308.15 K, x1 = 0.9019 | 1.219 ± 0.014

Brc1ccccc1 + c1ccccc1
101 kPa
Details | viscosity [mPa·s]
298.15 K, x1 = 0.0867 | 0.636 ± 0.017
298.15 K, x1 = 0.116 | 0.649 ± 0.018
298.15 K, x1 = 0.8 | 0.96 ± 0.026
303.15 K, x1 = 0.086 | 0.61 ± 0.011
303.15 K, x1 = 0.176 | 0.653 ± 0.011
303.15 K, x1 = 0.268 | 0.7 ± 0.012
303.15 K, x1 = 0.362 | 0.742 ± 0.013
303.15 K, x1 = 0.46 | 0.785 ± 0.013
303.15 K, x1 = 0.561 | 0.827 ± 0.014
303.15 K, x1 = 0.665 | 0.867 ± 0.015
303.15 K, x1 = 0.774 | 0.909 ± 0.015
303.15 K, x1 = 0.884 | 0.951 ± 0.016
308.15 K, x1 = 0.0867 | 0.558 ± 0.015
308.15 K, x1 = 0.116 | 0.568 ± 0.015
318.15 K, x1 = 0.0867 | 0.492 ± 0.013
318.15 K, x1 = 0.116 | 0.504 ± 0.014
323.15 K, x1 = 0.0867 | 0.461 ± 0.012
323.15 K, x1 = 0.116 | 0.47 ± 0.013
323.15 K, x1 = 0.8 | 0.711 ± 0.019

C1COCCO1 + c1ccccc1
303.15 K, 101 kPa
Details | viscosity [mPa·s]
x1 = 0.1009 | 0.603 ± 0.006
x1 = 0.104 | 0.599 ± 0.011
x1 = 0.207 | 0.644 ± 0.011
x1 = 0.3017 | 0.687 ± 0.007
x1 = 0.309 | 0.686 ± 0.012
x1 = 0.4005 | 0.736 ± 0.007
x1 = 0.411 | 0.733 ± 0.013
x1 = 0.4969 | 0.787 ± 0.008
x1 = 0.511 | 0.779 ± 0.013
x1 = 0.6 | 0.841 ± 0.008
x1 = 0.61 | 0.828 ± 0.014
x1 = 0.7019 | 0.895 ± 0.009
x1 = 0.709 | 0.882 ± 0.015
x1 = 0.8015 | 0.961 ± 0.009
x1 = 0.807 | 0.937 ± 0.016
x1 = 0.904 | 0.991 ± 0.016

CC(C)[N+](=O)[O-] + c1ccccc1
293.15 K, 101.33 kPa
Details | viscosity [mPa·s]
x1 = 0.0983 | 0.631 ± 0.006
x1 = 0.2123 | 0.62 ± 0.006
x1 = 0.2863 | 0.619 ± 0.006
x1 = 0.4048 | 0.622 ± 0.006
x1 = 0.5002 | 0.631 ± 0.006
x1 = 0.5981 | 0.641 ± 0.007
x1 = 0.7032 | 0.661 ± 0.007
x1 = 0.7847 | 0.683 ± 0.007
x1 = 0.908 | 0.731 ± 0.007

COC(=O)CC(=O)OC + c1ccccc1
303.15 K, 101 kPa
Details | viscosity [mPa·s]
x1 = 0.0794 | 0.6916 ± 0.007
x1 = 0.1634 | 0.8208 ± 0.0082
x1 = 0.2505 | 0.9519 ± 0.0094
x1 = 0.3426 | 1.078 ± 0.011
x1 = 0.4381 | 1.206 ± 0.012
x1 = 0.5395 | 1.341 ± 0.013
x1 = 0.6457 | 1.456 ± 0.014
x1 = 0.7579 | 1.58 ± 0.015
x1 = 0.8751 | 1.696 ± 0.017

COc1ccccc1O + c1ccccc1
303.15 K, 101 kPa
Details | viscosity [mPa·s]
x2 = 0.1 | 3.4 ± 0.09
x2 = 0.2 | 2.49 ± 0.07
x2 = 0.3 | 1.97 ± 0.05
x2 = 0.4 | 1.57 ± 0.04
x2 = 0.5 | 1.29 ± 0.03
x2 = 0.6 | 1.04 ± 0.03
x2 = 0.7 | 0.873 ± 0.023
x2 = 0.8 | 0.742 ± 0.02
x2 = 0.9 | 0.641 ± 0.017

Ic1ccccc1 + c1ccccc1
viscosity [mPa·s], 101 kPa
Details | 298.15 K | 308.15 K | 318.15 K | 323.15 K
x1 = 0.0668 | 0.646 ± 0.017 | 0.565 ± 0.015 | 0.499 ± 0.014 | 0.469 ± 0.013
x1 = 0.0896 | 0.66 ± 0.018 | 0.578 ± 0.016 | 0.512 ± 0.014 | 0.478 ± 0.013
x1 = 0.8 | 1.274 ± 0.034 | – | – | 0.917 ± 0.025

COc1ccccc1O + c1ccncc1
303.15 K, 101 kPa
Details | viscosity [mPa·s]
x2 = 0.1 | 5.04 ± 0.13
x2 = 0.2 | 5.38 ± 0.14
x2 = 0.25 | 5.4 ± 0.14
x2 = 0.27 | 5.42 ± 0.15
x2 = 0.3 | 5.4 ± 0.14
x2 = 0.4 | 4.94 ± 0.13
x2 = 0.5 | 4 ± 0.11
x2 = 0.6 | 3.3 ± 0.09
x2 = 0.7 | 2.07 ± 0.05
x2 = 0.8 | 1.48 ± 0.04
x2 = 0.9 | 1.09 ± 0.03
